System: Candida-Zellen
Assay: Antimycotic in vivo efficacy (oral) in mouse candidosis
Design: species or system Mäuse vom Typ SPF-CF1; key to Wirkung: + + + + +: sehr gute Wirkung = 90 % Überlebende am 6.Tag.p.i.; + + + +: gute Wirkung = 80 % Überlebende am 6.Tag.p.i.; + + +: Wirkung = 60 % Überlebende am 6.Tag.p.i.; + +: schwache Wirkung = 40 % Überlebende am 6.Tag.p.i.; +: Spur Wirkung = unter 40 % Überlebende am 6. Tag p.i.; k.W.: kein Unterschied zur unbehandelten Infektionskontrolle
Details: for Wirkung: mice infected i.v. with 1 - 2 x 10^6 Candida cells, oral treatment with 10 - 100 mg/kg each, one hour before and seven hours after infection, survivors on day 6 p.i.
Procedure: Antimykotische in-vivo-Wirksamkeit (oral) bei Mäusecandidose
Mäuse vom Typ SPF-CF1 wurden intravenös mit […] logarithmisch wachsenden Candida-Zellen, die in physiologischer Kochsalzlösung suspendiert werden, infiziert. Eine Stunde vor und sieben Stunden nach der Infektion werden die Tiere mit jeweils 10 - 100 mg/kg Körpergewicht der Präparate oral behandelt.
Unbehandelte Tiere starben 3 bis 6 Tage post infektionem. Die Überlebensrate am 6.Tag post infektionem betrug bei unbehandelten Kontrolltieren etwa 5 %.

SMILES | Wirkung | Wirkung (comparison with known compounds) (oral, mouse candidosis, statement in words, compared with (A) and (B))
OC(Cc1ccc(F)cc1)(Cn1cncn1)C1(Cl)CC1 (stereo not shown) [(I-1), 1-(4-Fluorphenyl)-2-(1-chlor-cyclopropyl)-3-(1,2,4-triazol-1-yl)-propan-2-ol] | + + + + + (sehr gute Wirkung = 90 % Überlebende am 6.Tag.p.i.) | bessere Wirkung
OC(Cn1cncn1)(c1ccccc1)C1(F)CC1 (stereo not shown) [(B)] | k.W. | –
OC(Cn1cncn1)(c1ccc(Cl)cc1)C1(F)CC1 (stereo not shown) [(A)] | k.W. | –
